Experimental findings from ChEMBL document CHEMBL5356973 (J Med Chem, 2023) are described below.

Activity calls are given as the source filed them. No cut-off for these calls is given here.

Data set [1] relates to Mus musculus. The data set can be described thus: Antinociceptive activity in Kunming mouse assessed as changes in tail flick latency by measuring maximal possible effect at 26.1 nmol/kg, sc measured after 20 mins by tail-flick test. It counts as functional.
Data set [2] can be described thus: Agonist activity at NPFF1R (unknown origin) transfected in CHO cells co-expressing Galphaq15 assessed as increase in calcium mobilization by measuring maximal efficacy by Fluo-4AM dye based assay relative to control. The note with it: Homo sapiens, filed as agonist. It counts as functional, cell-based. Background: Calcium assays in cells follow changes in intracellular calcium, usually with a dye or a luminescent sensor.

A short description of data set [3]: Metabolic stability in mouse plasma assessed as degradation half life at 10 mM measured upto 480 mins by RP-HPLC analysis. It counts as ADME, cell-free.
For data set [4], the system named is Mus musculus. The data set can be described thus: Antinociceptive activity in Kunming mouse assessed as changes in tail flick latency at 26.1 nmol/kg, sc pretreated with naloxone methiodide at 5 nmol, icv for 10 mins followed by compound addition and measured for 360 mins by tail-flick test. It counts as functional, organism-based. A general note: In hot-plate and tail-flick tests a longer latency is read as antinociception.

For data set [5], the system named is Mus musculus. Description: Antinociceptive activity in Kunming mouse assessed as changes in tail flick latency by measuring maximal possible effect at 26.1 nmol/kg, sc measured after 30 mins by tail-flick test. It counts as functional. The note with it: 0.5 h.
Data set [6] addresses T1, Delta-type opioid receptor (Homo sapiens, UniProt P41143). The data set can be described thus: Agonist activity at DOR (unknown origin) transfected in CHO cells co-expressing Galphaq15 assessed as increase in calcium mobilization by Fluo-4AM dye based assay. It counts as functional, cell-based.
Data set [7] deals with T2, Mu-type opioid receptor (Homo sapiens, UniProt P35372). Description: Agonist activity at MOR (unknown origin) transfected in CHO cells co-expressing Galphaq15 assessed as increase in calcium mobilization by measuring maximal efficacy by Fluo-4AM dye based assay relative to control. It counts as functional, cell-based. To be noted: filed as agonist.
Data set [8] concerns the target T3, Kappa-type opioid receptor (Homo sapiens, UniProt P41145). The data set can be described thus: Agonist activity at KOR (unknown origin) transfected in CHO cells co-expressing Galphaq15 assessed as increase in calcium mobilization by measuring maximal efficacy by Fluo-4AM dye based assay relative to control. It counts as functional, cell-based. The note with it: filed as agonist.

The subject of data set [9] is Mus musculus. The data set can be described thus: Antinociceptive activity in Kunming mouse assessed as changes in tail flick latency by measuring time duration of antinociceptive effect at 26.1 nmol/kg, sc by tail-flick test. It counts as functional.
Data set [10] has as its system Mus musculus. The data set can be described thus: Antinociceptive activity in Kunming mouse assessed as changes in tail flick latency by measuring maximal possible effect at 26.1 nmol/kg, sc measured after 240 mins by tail-flick test. It counts as functional. The note with it: 4 h.
Data set [11] deals with T2, Mu-type opioid receptor. Description: Agonist activity at MOR (unknown origin) transfected in CHO cells co-expressing Galphaq15 assessed as increase in calcium mobilization by Fluo-4AM dye based assay. It counts as functional, cell-based.
The nature of data set [12]: Metabolic stability in mouse brain homogenate assessed as degradation half life at 10 mM measured upto 480 mins by RP-HPLC analysis. It counts as ADME, tissue-based.
The target in data set [13] is T3, Kappa-type opioid receptor. The data set can be described thus: Agonist activity at KOR (unknown origin) transfected in CHO cells co-expressing Galphaq15 assessed as increase in calcium mobilization by Fluo-4AM dye based assay. It counts as functional, cell-based.
The target of data set [14] is T4, Neuropeptide FF receptor 2 (Homo sapiens, UniProt Q9Y5X5). Description: Agonist activity at NPFF2R (unknown origin) transfected in HEK293 cells co-expressing Galphaq15 assessed as increase in calcium mobilization by Fluo-4AM dye based assay. It counts as functional, cell-based.
The target in data set [15] is T1, Delta-type opioid receptor. Description: Agonist activity at DOR (unknown origin) transfected in CHO cells co-expressing Galphaq15 assessed as increase in calcium mobilization by measuring maximal efficacy by Fluo-4AM dye based assay relative to control. It counts as functional, cell-based. To be noted: filed as agonist.
The test system of data set [16] is Mus musculus. The data set can be described thus: Antinociceptive activity in Kunming mouse assessed as changes in tail flick latency by measuring maximal possible effect at 26.1 nmol/kg, sc measured after 60 mins by tail-flick test. It counts as functional. To be noted: 1 h.
In data set [17] the target is T4, Neuropeptide FF receptor 2. The data set can be described thus: Agonist activity at NPFF2R (unknown origin) transfected in HEK293 cells co-expressing Galphaq15 assessed as increase in calcium mobilization by measuring maximal efficacy by Fluo-4AM dye based assay relative to control. It counts as functional, cell-based. The note with it: filed as agonist.
In data set [18] the test system is Mus musculus. Description: Antinociceptive activity in Kunming mouse assessed as changes in tail flick latency by measuring maximal possible effect at 26.1 nmol/kg, sc measured after 120 mins by tail-flick test. It counts as functional. The note with it: 2 h.
For data set [19], the system named is Mus musculus. Description: Antinociceptive activity in Kunming mouse assessed as changes in tail flick latency by measuring maximal possible effect at 26.7 nmol/kg, sc measured after 30 mins by tail-flick test. It counts as functional. To be noted: 0.5 h.
Data set [20] concerns Mus musculus. Description: Antinociceptive activity in Kunming mouse assessed as changes in tail flick latency at 26.7 nmol/kg, sc pretreated with naloxone methiodide at 5 nmol, icv for 10 mins followed by compound addition and measured for 360 mins by tail-flick test. It counts as functional, organism-based.
Data set [21] deals with Mus musculus. Description: Antinociceptive activity in Kunming mouse assessed as changes in tail flick latency by measuring maximal possible effect at 26.7 nmol/kg, sc measured after 240 mins by tail-flick test. It counts as functional. To be noted: 4 h.
The subject of data set [22] is Mus musculus. Description: Antinociceptive activity in Kunming mouse assessed as changes in tail flick latency by measuring maximal possible effect at 26.7 nmol/kg, sc measured after 20 mins by tail-flick test. It counts as functional.
Data set [23] has as its system Mus musculus. Description: Antinociceptive activity in Kunming mouse assessed as changes in tail flick latency by measuring maximal possible effect at 26.7 nmol/kg, sc measured after 60 mins by tail-flick test. It counts as functional. The note with it: 1 h.
Data set [24] has as its system Mus musculus. The data set can be described thus: Antinociceptive activity in Kunming mouse assessed as changes in tail flick latency by measuring time duration of antinociceptive effect at 26.7 nmol/kg, sc by tail-flick test. It counts as functional.
Data set [25] deals with Mus musculus. Description: Antinociceptive activity in Kunming mouse assessed as changes in tail flick latency by measuring maximal possible effect at 26.7 nmol/kg, sc measured after 120 mins by tail-flick test. It counts as functional. To be noted: 2 h.

T2 sequence (P35372 whole entry): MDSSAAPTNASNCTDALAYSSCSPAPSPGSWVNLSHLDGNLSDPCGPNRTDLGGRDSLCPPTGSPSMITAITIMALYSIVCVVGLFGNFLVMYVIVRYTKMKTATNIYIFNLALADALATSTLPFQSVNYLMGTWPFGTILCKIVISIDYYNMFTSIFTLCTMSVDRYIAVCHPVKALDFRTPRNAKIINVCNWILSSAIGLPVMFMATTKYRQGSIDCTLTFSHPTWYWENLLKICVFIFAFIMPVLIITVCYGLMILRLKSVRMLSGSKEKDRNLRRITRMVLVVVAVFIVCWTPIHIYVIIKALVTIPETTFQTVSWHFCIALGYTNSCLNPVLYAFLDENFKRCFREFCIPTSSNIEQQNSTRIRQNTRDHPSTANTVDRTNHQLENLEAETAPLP
T3 sequence (P41145 whole entry): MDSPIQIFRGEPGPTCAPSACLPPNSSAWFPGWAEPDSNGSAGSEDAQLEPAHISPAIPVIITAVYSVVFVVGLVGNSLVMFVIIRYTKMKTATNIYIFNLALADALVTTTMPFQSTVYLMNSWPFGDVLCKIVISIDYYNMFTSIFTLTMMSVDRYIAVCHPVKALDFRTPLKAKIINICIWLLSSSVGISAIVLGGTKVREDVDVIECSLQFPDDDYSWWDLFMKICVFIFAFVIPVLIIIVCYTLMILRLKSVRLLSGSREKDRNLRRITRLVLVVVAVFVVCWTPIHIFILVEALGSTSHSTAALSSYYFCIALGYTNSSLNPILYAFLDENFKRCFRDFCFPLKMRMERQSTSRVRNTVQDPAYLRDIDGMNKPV
T4 sequence (Q9Y5X5 whole entry): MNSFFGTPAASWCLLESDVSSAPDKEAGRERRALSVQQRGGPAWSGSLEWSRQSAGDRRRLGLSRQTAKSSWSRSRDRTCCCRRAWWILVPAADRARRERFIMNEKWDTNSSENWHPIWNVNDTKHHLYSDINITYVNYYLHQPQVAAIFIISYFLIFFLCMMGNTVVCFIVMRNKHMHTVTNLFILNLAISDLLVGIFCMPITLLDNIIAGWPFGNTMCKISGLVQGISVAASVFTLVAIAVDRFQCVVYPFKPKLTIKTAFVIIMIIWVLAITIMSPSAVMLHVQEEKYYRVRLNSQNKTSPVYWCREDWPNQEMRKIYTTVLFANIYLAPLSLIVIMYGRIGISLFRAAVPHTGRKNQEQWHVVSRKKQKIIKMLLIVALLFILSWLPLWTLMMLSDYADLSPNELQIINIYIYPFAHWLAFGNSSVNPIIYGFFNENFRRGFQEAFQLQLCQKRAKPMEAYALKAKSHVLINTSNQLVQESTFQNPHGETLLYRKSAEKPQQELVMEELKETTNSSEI
T1 sequence (P41143 whole entry): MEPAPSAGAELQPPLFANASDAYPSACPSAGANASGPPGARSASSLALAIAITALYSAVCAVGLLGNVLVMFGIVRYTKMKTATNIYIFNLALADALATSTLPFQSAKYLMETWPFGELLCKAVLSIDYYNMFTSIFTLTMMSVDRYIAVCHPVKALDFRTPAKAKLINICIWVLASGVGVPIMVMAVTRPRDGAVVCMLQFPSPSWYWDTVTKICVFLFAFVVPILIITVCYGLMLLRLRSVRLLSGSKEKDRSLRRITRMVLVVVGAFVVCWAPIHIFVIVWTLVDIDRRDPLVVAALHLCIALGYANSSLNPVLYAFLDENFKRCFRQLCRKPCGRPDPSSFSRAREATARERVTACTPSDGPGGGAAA

`CN1C(=O)CNC(=O)[C@H](N[C@@H](Cc2ccc(O)cc2)C(=O)O)CCCC/C=C\CC[C@@H](C(=O)N2CCC[C@H]2C(=O)N[C@@H](CCC(N)=O)C(=O)N[C@@H](CCCNC(=N)N)C(=O)N[C@@H](Cc2ccccc2)C(N)=O)NC(=O)[C@@H]1Cc1ccccc1`: the MPE is 93% in the data set on Mus musculus [1]; 93.7% with Mus musculus [5]; 36% with Mus musculus [10]; 77.4% in the data set on Mus musculus [16]; 73.5% in the data set with Mus musculus [18]. For the same compound, the Emax turned out to be 105% in data set [2]; 109% on Mu-type opioid receptor [7]; 128% in [8]; 97.5% in data set [15]; 88.6% in data set [17]. For the same compound, the half-life at 10000 µM in data set [3] turned out to be 0.625 h; in data set [12] it was 1.95 h. In addition, in the data set with Mus musculus [4], the result was inactive. Besides, the EC50 in [6] came to 58.2 nM; at Mu-type opioid receptor [11] it was 92.3 nM; in data set [13], 503 nM; in [14] it was 1080 nM. Besides, the Time in the data set with Mus musculus [9] was determined as 360 min.

For the compound `CN1C(=O)CNC(=O)[C@H](N[C@@H](Cc2ccc(O)cc2)C(=O)O)CCC/C=C/C[C@@H](C(=O)N2CCC[C@H]2C(=O)N[C@@H](CCC(N)=O)C(=O)N[C@@H](CCCNC(=N)N)C(=O)N[C@@H](Cc2ccccc2)C(N)=O)NC(=O)[C@@H]1Cc1ccccc1`, the Emax in data set [2] was determined as 129%; on Mu-type opioid receptor [7] it was 120%; in [8], 98.3%; in data set [15] it was 93%; in data set [17] it was 77.9%. The half-life at 10000 µM in data set [3] was 1.01 h; in data set [12], 1.52 h. Further, the MPE in the data set on Mus musculus [19] came to 96%; in the data set with Mus musculus [21] it was 44.7%; in the data set on Mus musculus [22], 94.2%; in the data set with Mus musculus [23], 81.9%; in the data set with Mus musculus [25] it was 65.5%. Besides, the EC50 in data set [6] turned out to be 27.7 nM; at Mu-type opioid receptor [11], 38.9 nM; in [13], 124 nM; in [14], 52.3 nM. The result with Mus musculus [20] was inactive. The Time with Mus musculus [24] came out at 360 min.

The term Emax denotes the size of the effect at its maximum, as opposed to the concentration needed. For orientation: half-life means how long it takes for the measured level to halve. A word on the EC50: it is the midpoint of the concentration-response curve.
